Key:
HMEC cells = assay: Annexin V/PI staining in HMEC cells; assay type: cell-based; details: 25 nM
Method: (§1) FIG. 11 illustrates an embodiment of the present invention and illustrates SIM-1 and SIM-2 induced apoptosis in MDA-MB-468 TNBC cells, but not HMEC control cells. MDA-MB-468 cells were treated with increasing doses of (A) SIM-1 and (B) SIM-2 for 48 hrs followed by lactate dehydrogenase (LDH) release assay in the supernatants. The result was offset with cell-bound LDH and presented as a percent of DMSO control as discussed under method section. Half-maximal cytotoxicity or CT50 analyses were performed plotting maximum response as an index of increasing doses of (C) SIM-1 and (D) SIM-2. AnnexinV (green) and propidium iodide (red) dual-labeling were performed to evaluate apoptotic response in MDA-MB-468 cells once treated with increasing doses of (E) SIM-1 and (F) SIM-2 for 24 hrs. Nuclei were stained with DAPI. TUNEL assay was performed in MDA-MB-468 cells after treatment with 25 nM of (G) SIM-1. Brown-colored TUNEL bodies were visualized at cresyl violet-stained blue nuclei. (H) The number of TUNEL bodies were counted as a percent of 100 cresyl violet-stained blue cells. Ten independent images were counted for the quantification study. Similarly, SIM-2 was assessed for (I) TUNEL and (J) subsequent quantification analyses. One-way ANOVA was performed to test the significance of mean between groups at **p<0.01 and ****p<0.0001. […]

[1] = tested on: cell cycle genes in TNBC tumors; assay: Real-time PCR of cell cycle genes in PDX tumors; assay type: in vivo, mouse; details: tumor tissue
Method: FIG. 13 illustrates an embodiment of the present invention and illustrates the effects of SIM-1 and SIM-2 on the growth arrest of TNBC tumors. […] The higher magnification images were given below. (B) Area of 50 randomly selected cells (10 different images from n=5 mice/group) from three different groups were measured using polygon tool of ImageJ software and then the scatter histogram analysis was performed using GraphPad Prism 10 statistical software package. The significance of mean between groups (***p<0.001 versus control) was calculated by one-way ANOVA analysis (effector: treatment). (C) IHC staining of cell growth marker Ki-67 in vehicle-, SIM-1-, and SIM-2-treated tumors represents the cell growth property of tumor cells. […] Both hematoxylin-ir nuclei (total cells) and Ki-67-ir cells were counted in n=15 images per group, converted in percent scale, and then plotted as scatter histogram. ****p<0.0001 vs. control as derived by one-way ANOVA. (E) IHC staining of cell proliferation marker PCNA in three different groups. (F) Scatter histogram analysis of […] counted from n=15 images per group and then plotted as percent scale. […] (G) A gene array of 84 genes in a validated human breast cancer gene array (RT^2 Profiler™ PCR array; Cat #PAHS-131ZA; Qiagen) was conducted in cDNA samples extracted from TNBC tumors of vehicle, SIM-1- and SIM-2-treated (n=3) groups. The resultant gene expressions were converted in log scale and then compared with the vehicle in (G) SIM-1 and (H) SIM-2 treated groups as shown in scatter plots. […] (I) Validation of gene expressions of CCND1, CCND2, CCNE1, CDK2 genes were performed by real-time PCR analysis. (J) Upregulations of CDKN1A, and CDKN2A in SIM-1- and SIM-2-treated groups were validated by real-time PCR analyses. were Significance of mean calculated by one-way ANOVA resulted […] versus respective vehicle-groups. The results are confirmed after three different experiments.
To assess the histopathological changes in tumor parenchyma, H&E staining of tumor tissue was performed in three different groups (FIG. 13A). The hematoxylin-stained cells appeared with enlarged and densely colored nuclei characteristic of growing and mitotic tumor cells. […] The result was further corroborated with the quantitative analyses of cell size (FIG. 13B). […] To further confirm, we performed a gene array with a validated RNA array kit (Qiagen) of genes that are involved in the growth and proliferation of breast cancer cells. Relative expressions of different genes were summarized by heatmap clusterogram analyses (FIG. 14D).

MDA-MB-468 cells = assay: TUNEL assay in MDA-MB-468 cells; assay type: cell-based, human; details: 25 nM
Method: as §1, with “Nuclei were stained with DAPI. TUNEL assay was performed in MDA-MB-468 cells after treatment with 25 nM of (G) SIM-1. Brown-colored TUNEL bodies were visualized at cresyl violet-stained blue nuclei.” left out, “analyses.” for “analyses. One-way ANOVA was performed to test the significance of mean between groups at **p<0.01 and ****p<0.0001.”
This example provides a representative experiment that studies if SIM-1 and SIM-2 promoted the death of TNBC cells. […] During apoptosis, phosphatidyl serine of the plasma membrane flips from the inner to the outer membrane which can be detected by Annexin V labeling, whereas PI stains the nucleus of a cell with compromised integrity of the plasma membrane. […]

Compound | apoptosis in healthy normal cells (annexin V/PI) (HMEC cells) | expression of CCND1, CCND2, CCNE1 and CDK2 (real-time PCR) [1] | expression of CDKN1A and CDKN2A (real-time PCR) [1] | TUNEL response (MDA-MB-468 cells)
O=C(O)CCC(=O)NCc1csc2ccc(Cl)cc12 [SIM-1, 4-[(5-chloro-1-benzothiophen-3-yl)methylamino]-4-oxobutanoic acid] | unable to induce apoptosis | strongly suppressed | significantly induced | strongly induced
CCOC(=O)c1c(NC(C)=O)sc2c(Cl)c(/C=N/O)ccc12 [SIM-2, ethyl 2-acetamido-7-chloro-6-(hydroxyiminomethyl)-1-benzothiophene-3-carboxylate] | unable to induce apoptosis | strongly suppressed | significantly induced | strongly induced
